Measurements: patent US5530126A, “Process for the preparation of substituted 6-(pyrazol-3yl)-1,4-benzoxazin-3-ones” (Monsanto Company, priority 1994, dated 1996)

Tests used:
Type in all cases: in vivo
[1] = system: Annual bluegrass; assay: Pre-emergence herbicide test; conditions: read-out: % plant inhibition (Anbg); for inhibition at 11210 g/ha: 11.21 kg/ha
In short: (§1)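 Known dose of active, dissolved or suspended in acetone or water, delivered onto seed bed prior to emergence and buried under untreated topsoil. Greenhouse incubation with watering from below. Percentage inhibition rated 10-14 days after seeding.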

[2] = system: Barnyardgrass; assay: Pre-emergence herbicide test; conditions: Echinochloa crus-galli, read-out: % plant inhibition (Bygr); for inhibition at 11210 g/ha: 11.21 kg/ha
In short: as §1

[3] = system: Cocklebur; assay: Pre-emergence herbicide test; conditions: Xanthium strumarium, read-out: % plant inhibition (Cobu); for inhibition at 11210 g/ha: 11.21 kg/ha
In short: as §1

[4] = system: Downy Brome; assay: Pre-emergence herbicide test; conditions: Bromus tectorum, read-out: % plant inhibition (Dobr); for inhibition at 11210 g/ha: 11.21 kg/ha
In short: as §1

[5] = system: Indian Mustard; assay: Pre-emergence herbicide test; conditions: Brassica juncea, read-out: % plant inhibition (Inmu); for inhibition at 11210 g/ha: 11.21 kg/ha
In short: as §1

[6] = system: Morningglory; assay: Pre-emergence herbicide test; conditions: Ipomoea, read-out: % plant inhibition (Mogl); for inhibition at 11210 g/ha: 11.21 kg/ha
In short: as §1

[7] = system: Seedling johnsongrass; assay: Pre-emergence herbicide test; conditions: Sorghum halepense, read-out: % plant inhibition (Sejg); for inhibition at 11210 g/ha: 11.21 kg/ha
In short: as §1

[8] = system: Velvetleaf; assay: Pre-emergence herbicide test; conditions: Abutilon theophrasti, read-out: % plant inhibition (Vele); for inhibition at 11210 g/ha: 11.21 kg/ha
In short: as §1

[9] = system: Wild buckwheat; assay: Pre-emergence herbicide test; conditions: Fallopia convolvulus, read-out: % plant inhibition (Wibw); for inhibition at 11210 g/ha: 11.21 kg/ha
In short: as §1

[10] = system: Yellow nutsedge; assay: Pre-emergence herbicide test; conditions: Cyperus, read-out: % plant inhibition (Yens); for inhibition at 11210 g/ha: 11.21 kg/ha
In short: as §1

[11] = system: Annual bluegrass; assay: Post-emergence herbicide test; conditions: read-out: % plant inhibition (Anbg); for inhibition at 11210 g/ha: 11.21 kg/ha
In short: (§2)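 Greenhouse-raised seedlings and perennial propagule shoots, aged 2–3 weeks, receive an atomized spray at 10 psig. The solution or suspension carries roughly 0.4% emulsifier and is applied at 200 gallons/acre; injury is rated as % inhibition after about 11 days.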

[12] = system: Barnyardgrass; assay: Post-emergence herbicide test; conditions: Echinochloa crus-galli, read-out: % plant inhibition (Bygr); for inhibition at 11210 g/ha: 11.21 kg/ha
In short: as §2

[13] = system: Cocklebur; assay: Post-emergence herbicide test; conditions: Xanthium strumarium, read-out: % plant inhibition (Cobu); for inhibition at 11210 g/ha: 11.21 kg/ha
In short: as §2

[14] = system: Downy Brome; assay: Post-emergence herbicide test; conditions: Bromus tectorum, read-out: % plant inhibition (Dobr); for inhibition at 11210 g/ha: 11.21 kg/ha
In short: as §2

[15] = system: Indian Mustard; assay: Post-emergence herbicide test; conditions: Brassica juncea, read-out: % plant inhibition (Inmu); for inhibition at 11210 g/ha: 11.21 kg/ha
In short: as §2

[16] = system: Morningglory; assay: Post-emergence herbicide test; conditions: Ipomoea, read-out: % plant inhibition (Mogl); for inhibition at 11210 g/ha: 11.21 kg/ha
In short: as §2

[17] = system: Seedling johnsongrass; assay: Post-emergence herbicide test; conditions: Sorghum halepense, read-out: % plant inhibition (Sejg); for inhibition at 11210 g/ha: 11.21 kg/ha
In short: as §2

[18] = system: Velvetleaf; assay: Post-emergence herbicide test; conditions: Abutilon theophrasti, read-out: % plant inhibition (Vele); for inhibition at 11210 g/ha: 11.21 kg/ha
In short: as §2

[19] = system: Wild buckwheat; assay: Post-emergence herbicide test; conditions: Fallopia convolvulus, read-out: % plant inhibition (Wibw); for inhibition at 11210 g/ha: 11.21 kg/ha
In short: as §2

[20] = system: Yellow nutsedge; assay: Post-emergence herbicide test; conditions: Cyperus, read-out: % plant inhibition (Yens); for inhibition at 11210 g/ha: 11.21 kg/ha
In short: as §2

Row | Compound | inhibition at 11210 g/ha [1] [%] | inhibition at 11210 g/ha [2] [%] | inhibition at 11210 g/ha [3] [%] | inhibition at 11210 g/ha [4] [%] | inhibition at 11210 g/ha [5] [%] | inhibition at 11210 g/ha [6] [%] | inhibition at 11210 g/ha [7] [%] | inhibition at 11210 g/ha [8] [%] | inhibition at 11210 g/ha [9] [%] | inhibition at 11210 g/ha [10] [%] | inhibition at 11210 g/ha [11] [%] | inhibition at 11210 g/ha [12] [%] | inhibition at 11210 g/ha [13] [%] | inhibition at 11210 g/ha [14] [%] | inhibition at 11210 g/ha [15] [%] | inhibition at 11210 g/ha [16] [%] | inhibition at 11210 g/ha [17] [%] | inhibition at 11210 g/ha [18] [%] | inhibition at 11210 g/ha [19] [%] | inhibition at 11210 g/ha [20] [%] | also measured
1 | COC(=O)Cc1cc(-c2nn(C)c(C(F)(F)F)c2Cl)c(F)cc1Cl [Compound 110] | – | – | – | – | – | – | – | – | – | – | – | – | – | – | – | – | – | – | – | – | inhibition at 1120 g/ha ([1]; 1.12 kg/ha): 0%; inhibition at 1120 g/ha ([2]; 1.12 kg/ha): 20%; inhibition at 1120 g/ha ([3]; 1.12 kg/ha): 50%; inhibition at 1120 g/ha ([4]; 1.12 kg/ha): 0%; inhibition at 1120 g/ha ([5]; 1.12 kg/ha): 80%; inhibition at 1120 g/ha ([6]; 1.12 kg/ha): 70%; inhibition at 1120 g/ha ([7]; 1.12 kg/ha): 0%; inhibition at 1120 g/ha ([8]; 1.12 kg/ha): 100%; inhibition at 1120 g/ha ([9]; 1.12 kg/ha): 70%; inhibition at 1120 g/ha ([10]; 1.12 kg/ha): 0%; inhibition at 1120 g/ha ([11]; 1.12 kg/ha): 30%; inhibition at 1120 g/ha ([12]; 1.12 kg/ha): 70%; inhibition at 1120 g/ha ([13]; 1.12 kg/ha): 60%; inhibition at 1120 g/ha ([14]; 1.12 kg/ha): 20%; inhibition at 1120 g/ha ([15]; 1.12 kg/ha): 30%; inhibition at 1120 g/ha ([16]; 1.12 kg/ha): 80%; inhibition at 1120 g/ha ([17]; 1.12 kg/ha): 40%; inhibition at 1120 g/ha ([18]; 1.12 kg/ha): 100%; inhibition at 1120 g/ha ([19]; 1.12 kg/ha): 100%; inhibition at 1120 g/ha ([20]; 1.12 kg/ha): 20%
2 | Cn1nc(-c2cc(CC(=O)O)c(Cl)cc2F)c(Cl)c1C(F)(F)F [Compound 111] | 80 | 40 | 90 | 70 | 100 | 100 | 80 | 100 | 100 | 60 | 0 | 60 | 100 | 20 | 80 | 100 | 20 | 100 | 100 | 30 | –
3 | Cn1nc(-c2cc(CC(N)=O)c(Cl)cc2F)c(Cl)c1C(F)(F)F [Compound 112] | 100 | 100 | 40 | 20 | 100 | 100 | 90 | 100 | 90 | 80 | 30 | 60 | 60 | 0 | 40 | 80 | 30 | 100 | 70 | 40 | –
4 | Cn1nc(-c2cc(CC(=O)NCCCl)c(Cl)cc2F)c(Cl)c1C(F)(F)F [Compound 113] | 10 | 80 | 0 | 0 | 80 | 30 | 30 | 80 | 40 | 0 | 0 | 0 | 20 | 0 | 0 | 30 | 0 | 50 | 20 | 0 | –
5 | CNC(=O)Cc1cc(-c2nn(C)c(C(F)(F)F)c2Cl)c(F)cc1Cl [Compound 114] | 100 | 100 | 70 | 60 | 100 | 100 | 90 | 100 | 100 | 90 | 10 | 0 | 20 | 0 | 10 | 50 | 0 | 50 | 60 | 10 | –
